Legend:
[1] = tested on: c-Myc, Sox-2 and Oct4; experiment: Western blot of key transcription factors; type: cell-based, human
Method: (§1) Cells were lysed using Active Motif Nuclear Co-ip kit according to manufacturer's protocol. 20 μg of enriched nuclear and cytoplasmic extracts was subjected to electrophoresis in 10% polyacrylamide gel. The proteins were then transferred to a nitrocellulose membrane and developed with appropriate antibodies.

[2] = in vivo; cited from earlier work
[3] = tested on: CSC-relevant transcription factors in colon cancer HCT116 CD133+ and prostate xPT2 CD133+ cells; experiment: PCR array of stem cell-related transcription factors, colon and prostate CD133+ cells; type: cell-based, human; details: CMC2.24 as stated in Example 2
Method: Stem cell-specific gene expression profiles were studied with the PCR Array assay (SABiosciences, CA) in accordance with the manufacturer's recommendations. Briefly, total RNA was isolated from different cell populations (cancer stem cells expressing high levels of the CD133 and CD44, or whole floating spheroids that are enriched with CSCs) using PARIS kit (Ambion). Up to 1 μg of total RNA was treated with DNase and cDNA was prepared using RT^2 First Strand kit. For each analysis, pairs of the test and control cDNA samples were mixed with RT^2 qPCR Master mix and distributed across the PCR array 96-well plates, each of which contained 84 stem cell-related probes and control housekeeping genes. After cycling with real-time PCR (Opticon MJ Research or ABI 7300, Applied Biosystems), obtained amplification data (fold-changes in Ct values of all the genes) was analyzed with SABiosciences software.

[4] = tested on: p53 and p21; experiment: Western blot of pro-apoptotic proteins; type: cell-based, human; details: CD133+ and bulk PPT2 cells, previously not expressed
Method: as §1

[5] = tested on: prostate CD133+ cells (PPT2 and PC3MM2); experiment: MTT cytotoxicity assay, results stated for prostate CD133+ cells without split by line; type: cell-based, human
Method: (§2) The CSC-specific cytotoxic effects were studied in two different settings both of which are known to maintain/promote sternness phenotype: adherent to type I collagen cultures and 3D cultures of floating spheroids (Baretton, G. B. 1994; Miyoshi, Y. 2000; Koivisto, P. 1995). The CD133^high/CD44^high cells (1×10^3 cells/well) isolated either from PPT2 or PC3MM2 cell lines were seeded onto the type I collagen-coated 96-well plates, cultured in the MSCGM for 2 days, and the treatment was initiated upon 90% confluency. Paclitaxel, SBT-1214 and CMC2.24 were dissolved in sterile DMSO and then serially diluted in MSCGM. For testing the SBT-1214/CMC2.24 combination efficacy, the regular MSCGM was replaced with treatment medium containing SBT-1214 or Ptx at selected concentration range (from 10 nM to 10 μM) with 30 μM CMC2.24. Treatment medium was removed 24, 48 or 72 hr later, followed by return to the MSCGM. Cell death was analyzed on adherent type I collagen cell cultures with the MTT assay [MTT=3-(4,5-dimethylthiazol-2-yl)-2,5-diphenyltetrazolium bromide] as recommended by manufacturer (Invitrogen). Spheroids were cultured and treated on ULA plates.
(§3) The dose-response cytotoxicity of SBT-1214, CMC2.24/and their combination was evaluated by standard MTT assay (all of the in vitro experiments were repeated at least three times and each measurement for the MMT assay was performed in 4 repeats). The dose-response points were plotted as a percentage of the untreated control, the absorbance of which was considered as 100%. Data were expressed as means±SD for each drug concentration. The in vivo responses to drug treatment were evaluated as changes in tumor volume of drug-treated versus untreated control xenografts induced by particular type of cells. Data were expressed as means±SD for control and drug treated tumors. The statistical significance of differences was determined using Student's t-test. The parameters used were the two-tailed distribution and the paired test. P<0.05 was considered statistically significant.

[6] = tested on: PPT2 and PC3MM2 cell lines; experiment: FACS analysis of CD133 expression after drug treatment; type: cell-based, human
Source text: To ensure more reliable isolation of CSCs, cells were labeled with one or several markers conjugated with different fluorescent dyes, including anti-human CD133/2-APC (clone 293C3; Miltenyi Biotec, CA, USA); CD166-PE (clone 105902; R&D Systems, MN, USA); CD44-FITC (clone F10-44-2), CD44-PE (clone F10-44-2; Invitrogen/Biosources, USA); CD44v6-FITC (clone 2F10; R&D Systems, USA), EpCAM-FITC (Biosource, CA, USA), Pan-Keratin (C11)-Alexa Fluor® 488 (Cell Signaling) and all the isotype controls (Chemicon). Antibodies were diluted in buffer containing 5% BSA, 1 mM EDTA and 15-20% blocking reagent (Miltenyi Biotec) to inhibit unspecific binding to non-target cells. After 15 min incubation at 4° C., stained cells were sorted and analyzed with multiparametric flow cytometer BD FACSAria (Becton Dickinson, CA). Alternatively, dissociated cells were centrifuged at 950 g for 5 min at 4° C., rinsed with sterile MACS buffer (Miltenyi Biotec, CA) and labeled with CD133 Abs directly or indirectly conjugated with ferromagnetic beads (Miltenyi Biotec, CA) as recommended by manufacturer.
as §2, with “For testing the SBT-1214/CMC2.24 combination efficacy, the regular MSCGM was replaced with treatment medium containing SBT-1214 or Ptx at selected concentration range (from 10 nM to 10 μM) with 30 μM CMC2.24. Treatment medium was removed 24, 48 or 72 hr later, followed by return to the MSCGM.” left out, “Spheroids were cultured and treated on ULA plates.” left out

[7] = tested on: CD133+ PC3MM2 cells; experiment: MTT cytotoxicity assay, CD133+ PC3MM2 cells on type I collagen; type: cell-based, human; details: 72 hours, 10 nM-10 μM
Method: as §2, with “For testing the SBT-1214/CMC2.24 combination efficacy, the regular MSCGM was replaced with treatment medium containing SBT-1214 or Ptx at selected concentration range (from 10 nM to 10 μM) with 30 μM CMC2.24. Treatment medium was removed 24, 48 or 72 hr later, followed by return to the MSCGM.” left out, “Spheroids were cultured and treated on ULA plates.” left out
as §3, with “The in vivo responses to drug treatment were evaluated as changes in tumor volume of drug-treated versus untreated control xenografts induced by particular type of cells.” left out, “The parameters used were the two-tailed distribution and the paired test. P<0.05 was considered statistically significant.” left out

[8] = tested on: CD133hi cells; experiment: Number of CD133hi cells after taxol, stemness-promoting cultures (FIG. 1); type: cell-based
Method: FIG. 1: The standard anti-cancer drug Taxol increases the ratios (shown by FACS analyses of cells with high expression of CD133) and actual number of CSCs (shown at right graph). CSC-enriched cell populations were cultured and treated in vitro under stemness-promoting condition, i.e. adherent to type I collagen (upper left panels) and as floating 3D spheroids (low left panels) in serum-free stem cell medium (MSCBM, Lonza).
Before any assays, particular cells were isolated using immunomagnetic and FACS cell sorting, characterized with FACS analysis and cultured under the stemness-promoting conditions (repeated cell sorting; serum-free stem cell medium; Lonza; low cell density; type I collagen-coated surfaces; non-adherent culturing on ultra-low adherent plates; Corning).

[9] = tested on: CD133+ PPT2 cells; type: cell-based, human; details: 72 hours, 10 nM-10 μM
Method: as §2, §3

| SMILES | key TF proteins ([1]; both nuclear and cytoplasmic fractions) | c-Myc and Sox2 expression ([1]; nuclear extracts of CD133+ and bulk PPT2 cells) | systemic toxicity [2] | inhibition of CSC-relevant transcription factors [3] | expression of p21 and p53 [4] | effect on cells, higher doses ([5]; 10-40 μM, 72 hr) | concentration dependence of effect on prostate CD133+ cells ([5]; single agent) | effect on cell proliferation, low concentrations ([5]; up to 10 μM, 72 hr) | ratios of cells with highest expression of CD133 ([6]; CMC2.24 treatment, FIG. 11C) | proliferation of the tumorigenic prostate cancer cells [7] | number of CD133hi cells after treatment ([8]; 3D spheroids) [%] | number of CD133hi cells after treatment ([8]; type I collagen cultures) [%] | proliferation of the tumorigenic prostate cancer cells [9] | cell death ([5]; 10 μM, 48-72 hours) | ratios of cells with highest expression of CD133 ([6]; 10 nM to 10 μM, 24 hours, concentration-dependent) |
| --- | --- | --- | --- | --- | --- | --- | --- | --- | --- | --- | --- | --- | --- | --- | --- |
| O=C(/C=C/c1ccc(O)cc1)C(C(=O)/C=C/c1ccc(O)cc1)C(=O)Nc1ccccc1 [CMC2.24] | dramatic inhibition | moderate down-regulation | no systemic toxicity | profound inhibition of the majority | induced expression | increasingly cytotoxic | biphasic effects | stimulated cell proliferation | did not induce an increase | – | – | – | – | – | – |
| CC(=O)O[C@H]1C(=O)[C@@]2(C)[C@H]([C@H](OC(=O)c3ccccc3)[C@]3(O)C[C@H](OC(=O)[C@H](O)[C@@H](NC(=O)c4ccccc4)c4ccccc4)C(C)=C1C3(C)C)[C@]1(OC(C)=O)CO[C@@H]1C[C@@H]2O [Paclitaxel] | – | – | – | – | – | – | – | – | – | did not suppress proliferation | 149 | 160 | did not suppress proliferation | about 40% | increased the ratios |
